Earlier results on 1 substance are cited in US9278997B2, “Processes for the manufacture of macrocyclic depsipeptides and new intermediates” (NOVARTIS AG, priority 2011, dated 2016).

For this series, the target named is chymotrypsin (Bos taurus, UniProt P00766). The note with it: from J. Nat. Prod. 68(9), 1324-7 (2005); read-out: IC50 value for inhibition of chymotrypsin.

One may read the IC50 as the midpoint of a concentration-inhibition curve. On to “(S)-2-acetamido-N^1-((1S,2S,5S,8S,11R,12S,15S,18S,21R)-2-benzyl-21-hydroxy-5-(4-hydroxybenzyl)-15-isobutyl-8-isopropyl-4,11-dimethyl-3,6,9,13,16,22-hexaoxo-10-oxa-1,4,7,14,17-pentaazabicyclo[16.3.1]docosan-12-yl)pentanediamide [Nostopeptin BN920]”, for which the concentration for half-maximal inhibition (IC50) is 31 nM.
